Measurements published in patent publication EP4768499A1, “MACROCYCLIC PEPTIDE COMPOUND HAVING CELL MEMBRANE PERMEABILITY AND METABOLIC STABILITY, AND LIBRARY CONTAINING SAME” (Chugai Seiyaku Kabushiki Kaisha, priority 2023, dated 2025).
Starred links: 1 amine or outer side, 2 acyl side, 3 side chain; linkers in the order of their positions; H or OH if unused. Positions of bridges follow the written chain, without caps; N, C: chain ends. Non-standard residues stand in square brackets, D forms with d. Residues, ends and D or L forms follow the SMILES beside them. *: point of attachment. NMeF = CN[C@@H](Cc1ccccc1)C(=O)O; NMeI = CC[C@H](C)[C@H](NC)C(=O)O; NMeT = CN[C@H](C(=O)O)[C@@H](C)O; hPhe = N[C@@H](CCc1ccccc1)C(=O)O; NMeβAla = CN(CCC(=O)[*:2])[*:1]; NMeD = CN[C@@H](CC(=O)O)C(=O)O; NMeL = CN[C@@H](CC(C)C)C(=O)O; NMeV = CN[C@H](C(=O)O)C(C)C; NMeAbu = CC[C@H](NC)C(=O)O; NMeA = CN[C@@H](C)C(=O)O; Piperidide = C1CCN(*)CC1; Abu = CC[C@H](N)C(=O)O; NBuGly = CCCCNCC(=O)O; Sar = CNCC(=O)O; tBu = CC(C)(C)*

Legend:
[1] = Membrane permeability test using Caco-2 cells with preincubation; format: in vitro ADME; conditions: Caco-2; preincubation 20 to 24 hours; Apical FaSSIF/HBSS pH 6.0, Basal HBSS 4% BSA pH 7.4; 180 minutes; read-out: Caco2 Papp
Caco-2 cells = assay: as above; format: in vitro ADME; conditions: Caco-2 cells, preincubation 20 to 24 hours; apical FaSSIF/HBSS 1% DMSO pH 6.0, basal HBSS 4% BSA pH 7.4; basal sample at 180 minutes
[2] = Metabolic stability test: liver microsomal stability assay; format: in vitro ADME, mouse; conditions: mouse liver microsomes 0.5 mg protein/mL, compound 1 µM; for microsomal CLint at 1 µM: male, pH 7.4, presence of NADPH, read-out: Mouse Hepatic Microsome CLh,int NADPH(+); for Mouse Hepatic Microsome CLh,int NADPH(-): absence of NADPH

SMILES	Papp A→B [1] [×10⁻⁶ cm/s]	Caco2 Papp (10^-6 cm/sec) (Caco-2 cells)	microsomal CLint at 1 µM [2] [µL/min/mg]	Mouse Hepatic Microsome CLh,int NADPH(-) [2] [µL/min/mg Protein]
CC[C@H](C)[C@@H]1NC(=O)CN(C)C(=O)C[C@@H](C(=O)N2CCCCC2)N(C)C(=O)[C@H](Cc2ccccc2)N(C)C(=O)[C@H](CC(C)C)N(C)C(=O)[C@H]([C@@H](C)O)NC(=O)[C@H](CC(C)C)N(C)C(=O)[C@H](CC(C)C)NC(=O)[C@H](C(C)C)N(C)C(=O)[C@H](C)N(C)C(=O)[C@H](CC(C)C)N(C)C(=O)[C@H](CCc2ccccc2)NC(=O)[C@H](CC(C)C)N(C)C1=O [pd165] ([Sar]I[NMeL][hPhe][NMeL][NMeA][NMeV]L[NMeL]T[NMeL][NMeF][NMeD]-Piperidide; lactam N-13)	0.1	0.10 10^-6 cm/sec	40.9	27.2
CC[C@H](C)[C@@H]1NC(=O)[C@H](CC(C)C)N(C)C(=O)[C@H](CC(C)C)NC(=O)CCN(C)C(=O)C[C@@H](C(=O)N2CCCCC2)N(C)C(=O)[C@H](CC(C)C)N(C)C(=O)[C@H](C)N(C)C(=O)[C@H]([C@@H](C)O)N(C)C(=O)[C@H](CC(C)C)N(C)C(=O)[C@H](COC(C)(C)C)NC(=O)[C@H](Cc2ccccc2)N(C)C(=O)[C@H](CC(C)C)N(C)C(=O)[C@H](Cc2ccccc2)N(C)C1=O [pd166] ([NMeβAla]L[NMeL]I[NMeF][NMeL][NMeF]S(tBu)[NMeL][NMeT][NMeA][NMeL][NMeD]-Piperidide; lactam N-13)	0.13	0.13 10^-6 cm/sec	32.4	34.0
CC[C@@H]1NC(=O)[C@H](Cc2ccccc2)N(C)C(=O)[C@H]([C@@H](C)O)NC(=O)[C@H](CC(C)C)N(C)C(=O)[C@H](C)N(C)C(=O)C[C@@H](C(=O)N2CCCCC2)N(C)C(=O)[C@H](CC(C)C)N(C)C(=O)[C@H]([C@@H](C)CC)N(C)C(=O)CN(C)C(=O)[C@H](CC(C)C)NC(=O)[C@H](Cc2ccccc2)N(C)C(=O)[C@H](CC(C)C)N(C)C(=O)[C@H]([C@@H](C)CC)N(C)C1=O [pd167] ([NMeA][NMeL]T[NMeF][Abu][NMeI][NMeL][NMeF]L[Sar][NMeI][NMeL][NMeD]-Piperidide; lactam N-13)	0.23	0.23 10^-6 cm/sec	35.9	33.0
CCCCN1CC(=O)N(C)[C@@H](Cc2ccccc2)C(=O)N[C@@H](CC(C)C)C(=O)N(C)[C@@H](C(C)C)C(=O)N(C)[C@@H](C)C(=O)N[C@@H](COC(C)(C)C)C(=O)N(C)[C@@H](CC)C(=O)N(C)[C@H](C(=O)N2CCCCC2)CC(=O)N(C)CC(=O)N(C)[C@@H](Cc2ccccc2)C(=O)N[C@@H]([C@@H](C)CC)C(=O)N(C)[C@@H](CC(C)C)C(=O)N(C)[C@@H]([C@@H](C)O)C1=O [pd168] ([Sar][NMeF]I[NMeL][NMeT][NBuGly][NMeF]L[NMeV][NMeA]S(tBu)[NMeAbu][NMeD]-Piperidide; lactam N-13)	1.11	1.11 10^-6 cm/sec	21.9	21.8
